Experimental data: US20080032989A1, “Method of treating inflammatory diseases using tyroskine kinase inhibitors” (priority 2006, published 2008)
pIC50: −log10 of the molar value. “And” between values parts separate entries of the source, which are not always exact repeats. Identical values can stand only once. “Also recorded” adds a separate entry of the source. Like-named read-outs stand apart in the source and are kept apart here.

Columns and labels:
[1] = system: established collagen-induced arthritis (CIA) in DBA/1 mice; test: Treatment of established collagen-induced arthritis (CIA); assay type: in vivo, mouse
c-Kit [2] = molecular target: T1, c-Kit (Mus musculus, UniProt P05532); test: SCF-induced mast cell signaling, immunoblot and RPP lysate array; assay type: cell-based; details: mast cells
T1 construct: endogenous in cells; host or cells: C1.MC/57.1 mouse mast cell line

synovial fluid monocytes = test: M-CSF-induced differentiation of RA synovial fluid monocytes to macrophages (morphology); assay type: cell-based, human; details: 5 μM imatinib with M-CSF, 72 hours
Text: H. Macrophage isolation and stimulation. […]. […]

[3] = system: autoreactive B cell responses in mice with CIA; test: Synovial array profiling of serum autoantibodies in CIA mice; assay type: in vivo, mouse; details: 100 mg/kg imatinib, day 49 sera
Experimental: M. Synovial array analysis. As described (Robinson, W. H., et al., Nat Med 8:295-301, (2002); Hueber, W., et al., Arthritis Rheum 52:2645-2655, (2005)), 500+ peptides and proteins representing autoantigens were printed on SuperEpoxy slides (TeleChem), arrays were incubated with 1:150 dilutions of mouse sera, followed by Cy3-labeled anti-mouse IgG/M antibody (Jackson Immunoresearch), and scanned using a GenePix 4000B scanner. Median feature intensities for each antigen were calculated from the 4-8 duplicate features representing each antigen.
. A robotic microarrayer was used to produce synovial arrays containing a spectrum of proteins and peptides representing candidate autoantigens in RA and CIA (Robinson, W. H., et al., Nat Med 8:295-301, (2002); Hueber, W., et al., Arthritis Rheum 52:2645-2655, (2005)). Arrays were incubated with 1:150 dilutions of sera, autoantibody binding detected with Cy3-labeled anti-mouse IgG/M, and arrays scanned and median fluorescence for each antigen determined. […]. Cluster and TreeView software was applied to order and display the array reactivity as a heatmap. […]

EAE in C57B/6 mice = test: Experimental autoimmune encephalomyelitis (EAE); assay type: in vivo, mouse; details: 100 mg/kg twice daily vs PBS-vehicle
[4] = system: collagen-induced arthritis (CIA) in DBA/1 mice; details: for severity of CIA (scores, paw measurements), direct comparison study: CGP53716 daily i.p. from 1 day prior to induction
[5] = system: B cells from naïve DBA/1 mice
[6] = system: splenocytes expressing CII-specific TCR
anti-CII T cells = details: mouse, 24 h
C1.MC/57.1 mast cells = test: SCF-stimulated mast cell cytokine production; details: 100 ng/mL SCF, 48 hrs, imatinib 1 μM and 5 μM
[7] = mice, cited from earlier work; for trough plasma level: 15 hours after dosing
PDGFR [8] = details: cited from earlier work
FGFR = details: literature, cited from earlier work
[9] = rats, oral 50 mg/kg; cited from earlier work
PDGFR [10] = system: PDGFR
c-Kit [11] = molecular target: T2, c-Kit (Homo sapiens, UniProt P10721); details: Table 5; read-out: Kit Inhibitory Profile (IC50); cited from earlier work
Abl = Abl (Homo sapiens, UniProt P00519); details: literature; cited from earlier work
[12] = system: EGFR, FGFR, insulin receptors, Src, Lyn, PKA and PKC; details: clinically relevant concentrations; cited from earlier work
[13] = I.P. 100 mg/kg, cited from earlier work
c-Kit [14] = molecular target: T2, c-Kit; test: In vitro c-Kit phosphorylation assay (HTScan c-Kit Kinase Assay); assay type: biochemical; set-up: purchased Cell Signaling; details: 30 minutes, time-resolved fluorescence, FIG. 11A
EGFR = EGFR (Homo sapiens, UniProt P00533); details: Table 7; cited from earlier work
[15] = 0-5 μM imatinib, SCF 10 minutes, immunoblot
[16] = CII-specific (anti-CII) TCR transgenic, 1 μM
[17] = CII-specific (anti-CII) TCR transgenic, 5 μM
[18] = CII-specific (anti-CII) TCR transgenic, 10 μM
[19] = CII-specific TCR transgenic, 1 μM
[20] = CII-specific TCR transgenic, 5 μM
[21] = CII-specific TCR transgenic, 10 μM
[22] = Table 7, read-out: PDGFR Inhibitory profile (with IC50s when available)
[23] = Table 5, read-out: PDGFR Inhibitory Profile (IC50)
[24] = read-out: IC50 for PDGFbb-induced FLS proliferation (PDGFR), FLS from human RA patient, H3-thymidine incorporation, FIG. 11B

T1 sequence (P05532 25-979): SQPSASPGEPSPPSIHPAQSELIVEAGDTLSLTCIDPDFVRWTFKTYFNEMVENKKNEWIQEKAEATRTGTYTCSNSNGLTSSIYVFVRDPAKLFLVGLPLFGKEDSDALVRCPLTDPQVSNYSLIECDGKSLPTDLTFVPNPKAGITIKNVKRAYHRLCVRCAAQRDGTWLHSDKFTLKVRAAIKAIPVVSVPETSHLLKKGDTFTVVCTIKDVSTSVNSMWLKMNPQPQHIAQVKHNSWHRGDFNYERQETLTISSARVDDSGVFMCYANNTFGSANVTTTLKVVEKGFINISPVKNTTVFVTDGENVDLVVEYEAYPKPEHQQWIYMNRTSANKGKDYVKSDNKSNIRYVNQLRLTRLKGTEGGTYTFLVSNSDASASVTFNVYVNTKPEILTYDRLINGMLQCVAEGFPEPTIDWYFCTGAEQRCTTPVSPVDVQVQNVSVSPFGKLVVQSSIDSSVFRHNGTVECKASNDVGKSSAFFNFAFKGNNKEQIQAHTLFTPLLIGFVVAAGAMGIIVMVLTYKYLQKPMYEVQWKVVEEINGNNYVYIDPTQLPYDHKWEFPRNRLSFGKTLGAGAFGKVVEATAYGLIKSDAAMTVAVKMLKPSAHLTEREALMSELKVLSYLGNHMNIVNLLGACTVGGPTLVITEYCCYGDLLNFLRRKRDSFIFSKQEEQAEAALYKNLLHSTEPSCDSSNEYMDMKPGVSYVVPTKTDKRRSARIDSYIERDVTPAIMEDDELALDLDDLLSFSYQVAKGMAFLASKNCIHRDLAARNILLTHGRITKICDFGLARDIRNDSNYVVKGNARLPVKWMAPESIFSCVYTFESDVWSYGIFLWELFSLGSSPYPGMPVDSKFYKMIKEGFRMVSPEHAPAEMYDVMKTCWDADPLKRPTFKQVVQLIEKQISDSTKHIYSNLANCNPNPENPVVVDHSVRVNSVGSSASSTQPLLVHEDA
Chain of EGFR (P00533 25-1210, species assumed): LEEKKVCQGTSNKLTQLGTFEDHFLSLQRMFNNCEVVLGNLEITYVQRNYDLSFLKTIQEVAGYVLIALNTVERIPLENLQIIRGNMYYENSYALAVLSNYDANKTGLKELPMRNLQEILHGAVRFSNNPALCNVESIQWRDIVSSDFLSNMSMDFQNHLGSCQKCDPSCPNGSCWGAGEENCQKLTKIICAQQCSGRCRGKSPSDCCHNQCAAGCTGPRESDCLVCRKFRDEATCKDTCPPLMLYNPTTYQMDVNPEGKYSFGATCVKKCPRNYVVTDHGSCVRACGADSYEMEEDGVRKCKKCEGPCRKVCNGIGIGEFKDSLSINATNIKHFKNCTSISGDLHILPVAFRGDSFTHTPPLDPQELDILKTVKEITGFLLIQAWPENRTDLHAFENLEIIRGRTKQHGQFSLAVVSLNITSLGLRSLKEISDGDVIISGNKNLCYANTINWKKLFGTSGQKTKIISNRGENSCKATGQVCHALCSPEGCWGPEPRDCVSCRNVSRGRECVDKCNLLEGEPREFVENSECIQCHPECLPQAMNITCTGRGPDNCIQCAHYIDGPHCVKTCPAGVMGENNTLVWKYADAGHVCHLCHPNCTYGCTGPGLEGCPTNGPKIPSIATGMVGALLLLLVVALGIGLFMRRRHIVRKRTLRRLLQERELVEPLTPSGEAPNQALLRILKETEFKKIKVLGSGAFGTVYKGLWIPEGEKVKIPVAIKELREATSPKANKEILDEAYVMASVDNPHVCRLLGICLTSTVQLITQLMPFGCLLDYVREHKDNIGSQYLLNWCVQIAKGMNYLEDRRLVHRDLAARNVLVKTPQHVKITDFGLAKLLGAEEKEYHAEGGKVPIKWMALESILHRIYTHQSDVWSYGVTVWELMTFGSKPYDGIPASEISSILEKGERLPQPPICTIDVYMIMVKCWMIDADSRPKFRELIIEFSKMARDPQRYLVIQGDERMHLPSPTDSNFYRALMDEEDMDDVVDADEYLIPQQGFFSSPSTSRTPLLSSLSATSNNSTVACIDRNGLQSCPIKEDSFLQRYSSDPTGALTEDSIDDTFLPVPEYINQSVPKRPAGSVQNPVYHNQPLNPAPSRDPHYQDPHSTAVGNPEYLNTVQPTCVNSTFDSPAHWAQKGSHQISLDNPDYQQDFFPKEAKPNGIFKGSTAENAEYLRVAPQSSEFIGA
Chain of Abl (P00519 whole entry, species assumed): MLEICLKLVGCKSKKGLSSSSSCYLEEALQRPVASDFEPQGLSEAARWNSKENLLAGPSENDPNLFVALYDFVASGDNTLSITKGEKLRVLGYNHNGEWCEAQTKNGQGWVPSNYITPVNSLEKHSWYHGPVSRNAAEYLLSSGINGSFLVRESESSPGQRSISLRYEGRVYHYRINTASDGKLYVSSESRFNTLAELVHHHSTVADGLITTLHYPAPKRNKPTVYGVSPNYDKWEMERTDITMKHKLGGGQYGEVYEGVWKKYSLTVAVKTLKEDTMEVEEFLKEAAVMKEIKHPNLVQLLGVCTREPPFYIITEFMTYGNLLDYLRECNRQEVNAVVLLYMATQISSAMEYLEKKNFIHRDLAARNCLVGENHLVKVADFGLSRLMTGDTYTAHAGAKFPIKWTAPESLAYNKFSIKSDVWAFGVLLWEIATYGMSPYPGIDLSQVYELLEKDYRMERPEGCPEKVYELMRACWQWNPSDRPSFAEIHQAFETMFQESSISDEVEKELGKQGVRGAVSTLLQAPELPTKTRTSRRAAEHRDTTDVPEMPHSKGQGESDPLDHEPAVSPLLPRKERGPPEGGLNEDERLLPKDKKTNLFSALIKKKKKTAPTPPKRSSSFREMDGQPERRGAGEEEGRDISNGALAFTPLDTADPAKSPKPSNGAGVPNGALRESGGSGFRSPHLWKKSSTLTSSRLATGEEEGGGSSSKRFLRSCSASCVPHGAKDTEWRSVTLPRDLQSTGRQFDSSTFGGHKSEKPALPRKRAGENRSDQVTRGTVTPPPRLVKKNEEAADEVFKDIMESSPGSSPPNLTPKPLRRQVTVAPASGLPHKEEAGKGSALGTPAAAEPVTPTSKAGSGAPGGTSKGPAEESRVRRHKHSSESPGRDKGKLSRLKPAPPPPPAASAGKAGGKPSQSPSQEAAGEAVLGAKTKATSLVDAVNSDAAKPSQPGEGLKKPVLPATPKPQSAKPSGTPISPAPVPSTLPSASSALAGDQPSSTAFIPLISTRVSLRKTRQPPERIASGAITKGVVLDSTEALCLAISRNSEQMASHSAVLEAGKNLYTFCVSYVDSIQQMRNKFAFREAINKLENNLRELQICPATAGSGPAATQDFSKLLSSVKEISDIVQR

Cc1ccc(NC(=O)c2ccc(CN3CCN(C)CC3)cc2)cc1Nc1nccc(-c2cccnc2)n1 [Imatinib]
progression of established arthritis (visual score, mean paw thickness) ([1]; 33 and 100 mg/kg, p<0.05 after 10 days of treatment): inhibited the progression of established arthritis | histopathology: synovitis, pannus, and erosion scores ([1]; treatment of established CIA, 33 and 100 mg/kg, p<0.05): statistically significant reductions in synovitis, pannus, and erosion scores | SCF-induced phosphorylation of c-Kit (c-Kit [2]; [15]): potently inhibited SCF-induced phosphorylation of c-Kit | phosphorylation of downstream Akt (Ser 473) (c-Kit [2]; [15]): corresponding reduction in phosphorylation of downstream Akt (Ser 473) | SCF-induced activation of kinases downstream of c-Kit (ERK, JNK, p38), RPP array (c-Kit [2]; 1 and 5 μM imatinib): inhibited SCF-induced activation of diverse protein tyrosine kinases downstream of c-Kit | differentiation of synovial fluid monocytes into macrophages (morphology) (synovial fluid monocytes): blocked the differentiation of synovial fluid monocytes from human RA patients into macrophages | expansion (epitope spreading) of autoreactive B cell responses [3]: reduced expansion of autoreactive B cell responses | onset and severity of EAE (EAE in C57B/6 mice): a delay in the onset and reduced severity of EAE | CIA efficacy compared to PBS vehicle-control ([4]; 15 mg/kg imatinib, FIG. 16A): relatively little efficacy | severity of CIA (mean visual arthritis score, mean paw thickness) ([4]; 33 or 100 mg/kg orally twice-daily from 1 day prior to induction, p<0.01 after day 38): significant reductions in the severity of CIA | incidence of CIA ([4]; 33 or 100 mg/kg orally twice-daily, day 49): reduced the incidence of CIA | severity of CIA (scores, paw measurements), direct comparison study ([4]; FIG. 13C-13D): statistically significant reductions in the severity of CIA | histopathology: synovitis, pannus, and erosion scores ([4]; CIA prevention study, 33 and 100 mg/kg, p<0.01 synovitis and erosion, p<0.05 pannus): statistically significant reductions in synovitis, pannus, and erosion scores | IgM production by LPS-stimulated B cells ([5]; imatinib 1 μM): mildly reduced | IgM production by LPS-stimulated B cells ([5]; imatinib 10 μM): most significant reduction | production of IFN-γ and TNFα by CII-stimulated TCR transgenic T cells ([6]; CII 20 μg/mL, 3.3 μM imatinib): moderate reduction | production of IFN-gamma, IL-4, and TNFα by CII-stimulated TCR transgenic T cells ([6]; CII 20 μg/mL, 10 μM imatinib): further reduced production | anti-CII T cell production of IL-2 ([6]; any imatinib concentration tested): not significantly reduced | Early apoptosis (PI− AnnV+) (anti-CII T cells; [16]): 3.8% | Late apoptosis (PI+ AnnV+) (anti-CII T cells; [16]): 0.6% | Early apoptosis (PI− AnnV+) (anti-CII T cells; [17]): 5.2% | Late apoptosis (PI+ AnnV+) (anti-CII T cells; [17]): 1.2% | Early apoptosis (PI− AnnV+) (anti-CII T cells; [18]): 6.2% | Late apoptosis (PI+ AnnV+) (anti-CII T cells; [18]): 0.9% | Early apoptosis (PI− AnnV+) (anti-CII T cells; [19]): 4.6% | Late apoptosis (PI+ AnnV+) (anti-CII T cells; [19]): 1.1% | Live cells (PI− AnnV−) (anti-CII T cells; [19]): 95.5% | Early apoptosis (PI− AnnV+) (anti-CII T cells; [20]): 5.3% | Late apoptosis (PI+ AnnV+) (anti-CII T cells; [20]): 0.7% | Live cells (PI− AnnV−) (anti-CII T cells; [20]): 93.6% | Early apoptosis (PI− AnnV+) (anti-CII T cells; [21]): 6.6% | Late apoptosis (PI+ AnnV+) (anti-CII T cells; [21]): 0.9% | Live cells (PI− AnnV−) (anti-CII T cells; [21]): 93.7% | Early apoptosis (PI− AnnV+) (anti-CII T cells; anti-CII TCR transgenic, 1 μM): 3.4% | Late apoptosis (PI+ AnnV+) (anti-CII T cells; anti-CII TCR transgenic, 1 μM): 0.5% | Early apoptosis (PI− AnnV+) (anti-CII T cells; anti-CII TCR transgenic, 5 μM): 5.9% | Late apoptosis (PI+ AnnV+) (anti-CII T cells; anti-CII TCR transgenic, 5 μM): 0.8% | Early apoptosis (PI− AnnV+) (anti-CII T cells; anti-CII TCR transgenic, 10 μM): 6.1% | Late apoptosis (PI+ AnnV+) (anti-CII T cells; anti-CII TCR transgenic, 10 μM): 0.9% | mast cell production of TNFα, GM-CSF, and IL-6 (C1.MC/57.1 mast cells): dramatically reduced mast cell production of TNFα, GM-CSF, and IL-6

CC(C)c1c(C(=O)Nc2ccccc2)c(-c2ccccc2)c(-c2ccc(F)cc2)n1CC[C@@H](O)C[C@@H](O)CC(=O)O [Atorvastatin]
clinical scores of CIA ([4]; atorvastatin alone, 1.25 to 20 mg/kg, FIG. 16B): not effective at decreasing the clinical scores of CIA

Cn1c(=O)c(-c2c(Cl)cccc2Cl)cc2cnc(Nc3cccc(CO)c3)nc21 [PD166326]
trough plasma level ([7]; 25 mg/kg): approximately 0.005 μM | peak plasma level ([7]; 25 mg/kg): 0.026 µM | trough plasma level ([7]; 50 mg/kg): ~0.018 µM | peak plasma level ([7]; 50 mg/kg): 0.098 µM

CNC(=O)c1cc(Oc2ccc(NC(=O)Nc3ccc(Cl)c(C(F)(F)F)c3)cc2)ccn1 [Sorafenib]
PDGFR Inhibitory profile (with IC50s when available) (PDGFR [8]; Table 6): potent

Cc1cn(-c2cc(NC(=O)c3ccc(C)c(Nc4nccc(-c5cccnc5)n4)c3)cc(C(F)(F)F)c2)cn1 [Nilotinib]
pIC50 (PDGFR [8]; [22]): 9.00

Cc1[nH]c(/C=C2\C(=O)Nc3ccc(Br)cc32)c(C)c1CCC(=O)O [SU9518]
pIC50 (PDGFR [8]; [23]): 7.30 | pIC50 (PDGFR [8]; literature, read-out: IC50 PDGFR (PDGFRα/β)): 7.28 | pIC50 (FGFR; unit inferred): 5.36 | peak plasma level [9]: 1.76 µM | plasma level 8 hours after dosing [9]: above 1 μM

Cc1[nH]c(/C=C2\C(=O)Nc3ccccc32)c(C)c1CCC(=O)O [SU6668]
pIC50 (PDGFR [8]; [22]): 8.00

COc1cc2c(Oc3ccc4[nH]c(C)cc4c3F)ncnc2cc1OCCCN1CCCC1 [Cediranib]
PDGFR Inhibitory profile (with IC50s when available) (PDGFR [8]; Table 7): potent?

Cc1ccc(NC(=O)c2ccccc2)cc1Nc1nccc(-c2cccnc2)n1 [CGP53716]
pIC50 (PDGFR [10]; [24]): […] | severity of CIA (scores, paw measurements), direct comparison study ([4]; FIG. 13C-13D): statistically significant reductions in the severity of CIA | efficacy at preventing and treating CIA relative to imatinib ([4]; FIG. 13C-13D): nearly as effective as imatinib | pIC50 (PDGFR [8]; [23]): […] | pIC50 (FGFR): 5.96 | pIC50 (c-Kit [11]): > 6.00 | pIC50 (Abl): 6.22 | inhibition of other kinases including EGFR, FGFR, insulin receptors, Src, Lyn, PKA and PKC [12]: does not inhibit other kinases at clinically relevant concentrations | plasma level ([13]; 8 hours after dosing): 1600 nM | plasma level ([13]; 24 hours after dosing): 1900 nM | pIC50 (c-Kit [14]): 8.70

CC1(C)CNc2cc(NC(=O)c3cccnc3NCc3ccncc3)ccc21 [AMG 706]
PDGFR Inhibitory profile (with IC50s when available) (PDGFR [8]; Table 7): potent

C[C@@H](Nc1ncnc2[nH]c(-c3ccc(O)cc3)cc12)c1ccccc1 [PKI-166]
EGFR Inhibitory profile (with IC50s when available) (EGFR): potent

COc1ccc(COc2ccc(Cc3cnc(N)nc3N)cc2OC)cc1 [GW2580]
severity of established CIA (mean visual arthritis score, paw thickness) ([1]; 50 mg/kg for 5 days vs vehicle): highly effective at treating established collagen-induced arthritis; also recorded: reduced the severity of arthritis | pIC50 (PDGFR [10]; [24]): 5.37 and 5.36 | pIC50 (PDGFR [10]; read-out: PDGFR Inhibitory Profile (IC50), Table 5, value referenced to FIG. 11): 5.37
